Consider 2 compounds from patent publication US12435065B2, “Crystalline forms of 1-(1,2-dimethylpropyl)-N-ethyl-5-methyl-N-pyridazin-4-yl-pyrazole-4-carboxamide” (BASF SE, priority 2019, dated 2025).

Molecules are shown by their SMILES.

The nature of data set [1]: Suspension of form A and form B in water, solid analysed by PXRD (phase stability). The class given is physicochemical. How it is done: (§1) Laboratory PXRD patterns were recorded with a PANalytical X'Pert Pro X-ray diffractometer using Cu Kα radiation in reflection geometry (Bragg-Brentano). The sample is placed in a silicon single crystal sample holder of 0.2 mm depth and gently and precisely flattened. The tube voltage is 45 kV and current is 40 mA. The PXRD data are collected at room temperature in the range from 2θ=3.0°-40.0° with increments of 0.017° and measurement time of 20 to 200 s/step.
In a glass tube equipped with a stirring bar 50 mg of form A and 50 mg of form B were suspended in 1 mL water and stirred for 5 days at room temperature. The resulting solid was removed from the mother liquor and analyzed by PXRD.

Data set [2] in a line: Milling of crystalline form B, analysed by PXRD (stability during grinding). The data set is classed as physicochemical. The conditions noted are these: 100 mg milled for 5 minutes with mortar and pestle. As to the method:
as §1
100 mg of crystalline form B obtained by the protocol of example 1 was milled for 5 minutes using mortar and pestel. The crystalline mass was analyzed by powder X-ray diffractometry.

Consider `CCN(C(=O)c1cnn(C(C)C(C)C)c1C)c1ccnnc1` (stereo not drawn) [form A, 1-(1,2-dimethylpropyl)-N-ethyl-5-methyl-N-pyridazin-4-yl-pyrazole-4-carboxamide], for which the “Crystal form of the solid after stirring in water (PXRD)” value in data set [1] (50 mg form A and 50 mg form B suspended in 1 mL water, stirred 5 days at room temperature) is reported as “complied with the data of crystalline form B”.
For the compound `CCN(C(=O)c1cnn(C(C)C(C)C)c1C)c1ccnnc1` (stereo not drawn) [form B, 1-(1,2-dimethylpropyl)-N-ethyl-5-methyl-N-pyridazin-4-yl-pyrazole-4-carboxamide], the “Crystal form after milling (PXRD)” value in data set [2] is “form B was identified”. The “Thermodynamic stability relative to crystalline form A” value in data set [1] (at least at room temperature) is “thermodynamically more stable than the crystalline form A”.
